Experiments:
[1] = In vitro drug release by dialysis method; type: physicochemical; conditions: PBS pH 7.4 containing 0.3% Tween 80
Method: With free Pt acetone solution as control, in vitro release of Pt from F-Pt/M formulation was studied by the dialysis method (Khan et al., [2020]; Rubab et al., [2021]; Yang et al., [2021]). Briefly, 1 mL of samples, equivalent to 0.8 mg drug, were filled into dialysis bags (molecular weight cutoff: 3500 Da) and dialyzed against 1,000 mL of phosphate buffer solution of pH values 7.4 (containing 0.3% Tween 80) to mimic drug release in normal tissues/blood. At the desired time intervals, 1 mL of release medium was withdrawn and replaced with 1 mL of fresh medium. The amount of released Pt was measured by spectrophotometer (Thermo Scientific Inc., Finland) with excitation wavelength at 330 nm and emission wavelength at 374 nm.
In order to understand the kinetic model of Pt release from F-Pt/M, zero-order, first-order and Higuchi models were fitted, and the highest adjusted R^2 value was used as the criterion for model selection.

A172 cells = test: In vitro cytotoxicity assay (CCK-8); type: cell-based; conditions: Homo sapiens, A 172, 48 h incubation
Method: Human glioblastoma A172 cells (Nanjing KeyGen Biotech Co., Ltd., Nanjing, China) which overexpress folate receptor (Weitman et al., [1992]) were used. Cells were routinely cultured in DMEM medium (Invitrogen, Grand Island, NY, USA) supplemented with 10% fetal bovine serum (Gibco Life Science, Grand Island, NY, USA) and 1% streptomycin/penicillin in a humidified atmosphere of 5% CO2 at 37 °C. Cell passages were carried out according to the manufacturer’s instructions.
To evaluate the inhibitory effects of Pt in various formulations on A172 cells, cytotoxicity assay was carried out with CCK-8 kits. Cells were seeded into 96-well plates at a density of 5,000 cells per well, followed by incubation for 24 h. Cells were treated with free Pt solution (free Pt), Pt loaded micelles (Pt/M), folate modified Pt loaded micelles (F-Pt/M) and blank micelles (BM) at equivalent drug concentrations ranging from 5 μM to 100 μM and further incubated for 48 h. […] After 2 h of incubation at 37 °C, the absorbance intensity was measured by a microplate reader (Varioskan LUX; Thermo Scientific Inc., Vantaa, Finland) at 450 nm. Cell viability was calculated by the ratio between the fluorescence absorbance of the cells treated with various Pt formulations (or blank micelles) and that of the cells incubated with the culture medium only. The IC50 values were calculated by using SPSS 22.0 (IBM Corp., Armonk, NY).

red blood cells (RBCs) = test: In vitro hemolysis assay; type: cell-based, SD rats; conditions: 37 °C, 1 h
Method: The hemocompatibility of F-Pt/M was investigated by hemolysis assay (Valenzuela-Oses et al., [2017]). Fresh SD rats blood was diluted by physiological saline, and red blood cells (RBCs) were collected by centrifugation at 1,200 rpm for 5 min. Following carefully washing and diluting, RBC suspension in normal saline (v/v, 2%) was prepared for hemolysis study. Pt loaded F-Pt/M and free Pt at different drug concentrations were added and mixed by vortex. Then, the samples were incubated at 37 °C for 1 h and after that were centrifuged at 3,000 rpm for 10 min. The supernatant was collected and spectrophotometrically measured on a microplate plate reader (Varioskan LUX, Thermo Scientific Inc., Vantaa, Finland) at 540 nm. Double distilled water and normal saline were employed as positive and negative control, respectively. The hemolysis ratio (HR) of RBCs was calculated using the following equation: (4) HR (%) = (As– A0)/(A100– A0) × 100
Where, As is the absorbance of sample, A0 is the absorbance of negative control and A100 is the absorbance of positive control.

[2] = Brain targeting and brain distribution study in rats; type: in vivo, SD rats; conditions: single i.v. 3 mg/kg; for Cmax / Tmax / half-life: male, SD, rat, iv
Method: Male SD rats weighing 200–250 g (Experimental Animal Center of Dalian Medical University, China) were maintained in standard conditions on a 14 h light/10 h dark cycle provided with food and water ad libitum prior to experimental procedures. All animal experimental protocols were conducted with an approval by the Institutional Animal Care and Use Committee at Dalian Medical University, Dalian, China (Ethics Committee approval number: SCXK 2018-0003) as well as in accordance with the recommendations and policies of the National Institutes of Health (NIH) guide for the care and use of laboratory animals (NIH Publications No. 8023, revised 1978).
Rats were randomly divided into two groups of 24 animals each. Each group received either freshly prepared control free Pt solution in DMSO (10%) in saline solution or formulation of F-Pt/M at a dose equivalent to 3 mg/kg of drug intravenously through lateral tail vein. From each group, three rats were sacrificed at intervals of 5, 15, 30, 45, 60, 90, 120 and180 min post dose. At each time point, blood sample was withdrawn and centrifuged at 3,500 rpm at 4 °C for 10 min. At the same time, the brain sample was harvested, weighed, and homogenized in PBS after cardiac perfusion with 0.9% normal saline solution. Samples were stored at −80 °C until analysis.
Pt from both brain and plasma samples was extracted by liquid-liquid extraction method. Briefly, 20 µL of internal standard working solution (resveratrol, 250 ng/ml) was added to 200 µL aliquot of plasma or brain sample. After 30 seconds of vortexing, 1 mL of extraction solvent, methyl tertiary butyl ether (MTBE) was added. Afterwards, the sample was mixed for 1 min plus centrifugation at 1,000 rpm for 5 min, the supernatant organic layer was carefully transferred and dried using nitrogen gas with gentle heat at 40 °C. The residue was reconstituted with 400 µL of mobile phase and centrifuged at 12,000 rpm for 10 min. The supernatant was transferred to an auto-sampler vial and 10 µL was then injected into the LC-MS/MS system for analysis. An LC-MS/MS analysis method reported by Ferrer (Ferrer et al., [2005]) was employed for the determination of Pt concentration.
Pharmacokinetic parameters, such as Cmax (maximum drug concentration), Tmax (the time to Cmax) and AUC0-t (area under plasma concentration-time curve), were calculated by DAS 2.0 (Drug and Statistics ver 2.0, China). To examine the blood-brain barrier penetration (P) of Pt, the following formula was employed (Yang et al., [2021]): (5) P=AUCbrain/AUCplasma
For brain targeting evaluation, DTI (drug targeting index) was determined using the following equation (Katekar et al., [2020]): (6) DTI = (AUCbrain/AUCplasma)test/(AUCbrain/AUCplasma)control

[3] = parameters: method as in Liu et al., 2020; conditions: crude Pt; ref Liu et al., 2020; cited from earlier work

**Q.** Which results are given for `COc1cc(/C=C/c2ccc(O)cc2)cc(OC)c1` [free Pt, 3,5-dimethoxy-4′-hydroxy-trans-stilbene]?
**A.** time over which the drug was released [1]: ≤ 5 h; IC50 (A172 cells): 24.4 µM; HR (hemolysis ratio) (red blood cells (RBCs); high concentration of 0.5 mg/mL): 11.23%; HR (hemolysis ratio) (red blood cells (RBCs); low concentration of 0.17 mg/mL): 6.46%; HR (hemolysis ratio) (red blood cells (RBCs); medium concentration of 0.33 mg/mL): 10.39%; AUC0-t ([2]; brain): 4369.66 ± 289.88 µg·min/L; Cmax ([2]; brain): 78.1 ± 13.9 ng/mL; Tmax ([2]; brain): 35 min; half-life ([2]; brain): 22.4 ± 2.84 min; Cmax ([2]; plasma): 221 ± 21.6 ng/mL; Tmax ([2]; plasma): 5 min; half-life ([2]; plasma): 114 ± 29.2 min; AUC0-t ([2]; plasma): 10107.80 ± 976.65 µg·min/L; solubility in water [3]: about 21 µg/mL

From paper PMC9848421, “Increased brain uptake of pterostilbene loaded folate modified micellar delivery system” (Drug Delivery, 2022)
